According to US12162864B2, “Condensed-cyclic compound” (Takeda Pharmaceutical Company Limited, priority 2018, dated 2024):

Columns and labels:
[1] = system: Male SD rats; assay: Rat defecation experiment; assay type: in vivo; details: oral, mean±standard error
Experimental: Rat Defecation Experiment
Male SD rats (5-6 weeks old) were used after an acclimation period for about 1 week. A test drug (1 mg/kg or 3 mg/kg) was suspended in 0.5% methylcellulose solution and orally administered at a volume of 5 mL/kg, and the number of feces for 2 hr later was counted. Only 0.5% methylcellulose was administered to a solvent administration group.

[2] = Rat PK test; assay type: in vivo; details: plasma, male SD rats, cassette dosing; for clearance / MRT: intravenous 0.1 mg/kg; for clearance: read-out: CL total (total clearance) (converted); for MRT: read-out: MRT iv (mean residence time); for Tmax: oral 1 mg/kg, read-out: Tmax (time to reach maximum plasma concentration)
Experimental: As the rat, 8-week-old male SD rats (Japan SLC, Inc.) were used. They were fed on a solid commercially available diet (CE-2, CLEA Japan, Inc.) and allowed to freely ingest tap water as the drinking water. An intravenous administration solution for the rats was prepared by weighing a test compound, dissolving same in dimethylacetamide (DMA) (Wako Pure Chemical Industries, Ltd.), adding the same volume of 1,3-butanediol (Wako Pure Chemical Industries, Ltd.) and mixing by stirring to give a DMA:1,3-butanediol (1:1, v/v) solution. An oral administration solution was prepared by weighing a test compound, pulverizing same in an agate mortar, and gradually adding 0.5 w/v % aqueous methylcellulose solution to give a suspension. For intravenous administration, the solution was administered into femoral vein of the rats at 0.1 mg/0.5 mL/kg (salt converted to free form). For oral administration, the suspension was administered to the rats at 1 mg/5 mL/kg (salt converted to free form). The cassette dosing method was used for the both administration routes, and the test compound was administered in the following manner. • Compound of Example 5 (intravenous: 9 compounds cassette administration, oral: 4 compounds cassette administration) • Compound of Example 6 (intravenous: 5 compounds cassette administration, oral: 3 compounds cassette administration) • Compound of Example 13 (intravenous: 10 compounds cassette administration, oral: 5 compounds cassette administration) • Compound of Example 14 (intravenous: 7 compounds cassette administration, oral: 3 compounds cassette administration) • Compound of Example 31 (intravenous: 9 compounds cassette administration, oral: 5 compounds cassette administration) • Compound of Example 60 (intravenous: 7 compounds cassette administration, oral: 2 compounds cassette administration)
In the case of intravenous administration, blood samples were collected from the tail vein at 5, 10, 15, 30 min, 1, 2, 4, 8 hr after administration, an anticoagulation treatment with heparin sodium (Shimizu Pharmaceutical Co., Ltd.) was performed, and plasma was collected after centrifugation and subjected to the measurement of drug concentration. In the case of oral administration, blood samples were collected from the tail vein at 15, 30 min, 1, 2, 4, 8 hr after administration, an anticoagulation treatment with heparin sodium was performed, and plasma was collected after centrifugation and subjected to the measurement of drug concentration.
All drug concentrations were measured by LC-MS/MS analysis. For a pharmacokinetics test, the plasma (50 μL) was placed in a tube, acetonitrile (150 μL) containing internal standard solution was added and they were mixed on a vortex mixer. Thereafter, the mixture was centrifuged (5000 rpm, 5 min, 4° C.). The supernatant (60 μL) after centrifugation was added to 10 mmol/L ammonium formate (160 μL) added earlier and mixed therewith. This sample was injected to LC/MS/MS. The HPLC system used was Shimadzu™ LC-20A (Shimadzu Corporation), the column used was Unison UK-C18 HT (3.0 μm, 2.0×20 mm, Imtakt) at 50° C., and 10 mmol/L ammonium formate, 0.2% formic acid as mobile phase A and acetonitrile, 0.2% formic acid as mobile phase B were fed each at a flow rate of 1.2 mL/min under gradient conditions of (B concentration: 0 min→0.1 min, 5%, 0.1→0.75 min, 5-99%, 0.75→1.15 min, 99%, 1.15→1.16 min, 5%, 1.16→1.5 min, 5%). MS/MS used was AB Sciex™ TQ5500-MPX (Applied Biosystems™).
The results are shown in Table 4. • Tmax: time to reach maximum plasma concentration • MRT: mean residence time • iv: intravenous administration • CL total: total clearance

SMILES	number of feces 2 hr later ([1]; 1 mg/kg)	number of feces 2 hr later ([1]; 3 mg/kg)	clearance [2]	MRT [2]	Tmax [2]
Cn1cnc(-c2ccc(Cc3cc(C(=O)N[C@H]4CCOC[C@@H]4O)c(F)c4c3OCC4)cc2)c1 [Example 5, 1,5-anhydro-2,3-dideoxy-3-(((4-fluoro-7-(4-(1-methyl-1H-imidazol-4-yl)benzyl)-2,3-dihydro-1-benzofuran-5-yl)carbonyl)amino)-L-threo-pentitol]	6.3 ± 0.7	8.7 ± 1.2	11.1 mL/min/kg	36 min	30 min
Cn1cc(-c2ccc(Cc3cc(C(=O)N[C@H]4CCOC[C@@H]4O)c(F)c4c3OCC4)cn2)cn1 [Example 6, 1,5-anhydro-2,3-dideoxy-3-(((4-fluoro-7-((6-(1-methyl-1H-pyrazol-4-yl)pyridin-3-yl)methyl)-2,3-dihydro-1-benzofuran-5-yl)carbonyl)amino)-L-threo-pentitol]	6.6 ± 0.9		6.5 mL/min/kg	84 min	72 min
COCCNC(=O)c1ccc(Cc2cc(C(=O)N[C@H]3CCOC[C@@H]3O)c(F)c3c2OCC3)cc1F [Example 13, 1,5-anhydro-2,3-dideoxy-3-(((4-fluoro-7-(3-fluoro-4-((2-methoxyethyl)carbamoyl)benzyl)-2,3-dihydro-1-benzofuran-5-yl)carbonyl)amino)-L-threo-pentitol]	9.9 ± 1.6		13.7 mL/min/kg	72 min	60 min
CCOCCNC(=O)c1ccc(Cc2cc(C(=O)N[C@H]3CCOC[C@@H]3O)c(F)c3c2OCC3)cc1F [Example 14, 1,5-anhydro-2,3-dideoxy-3-(((7-(4-((2-ethoxyethyl)carbamoyl)-3-fluorobenzyl)-4-fluoro-2,3-dihydro-1-benzofuran-5-yl)carbonyl)amino)-L-threo-pentitol]	6.8 ± 1.3	10.4 ± 1.1	22.9 mL/min/kg	36 min	42 min
CNC(=O)c1ccc(Cc2cc(C(=O)N[C@H]3CCOC[C@@H]3O)c(OC)c3c2OCC3)cc1F [Example 31, 1,5-anhydro-2,3-dideoxy-3-(((7-(3-fluoro-4-(methylcarbamoyl)benzyl)-4-methoxy-2,3-dihydro-1-benzofuran-5-yl)carbonyl)amino)-L-threo-pentitol]	5.9 ± 0.9		9.05 mL/min/kg	54 min	42 min
COCCCNC(=O)c1ccc(Cc2cc(C(=O)N[C@H]3CCOC[C@@H]3O)c(OC)c3c2CCC3)cc1F [Example 60, 1,5-anhydro-2,3-dideoxy-3-(((7-(3-fluoro-4-((3-methoxypropyl)carbamoyl)benzyl)-4-methoxy-2,3-dihydro-1H-inden-5-yl)carbonyl)amino)-L-threo-pentitol]	6.9 ± 1.2	11.4 ± 1.2	18.6 mL/min/kg	36 min	48 min
